Measured values taken from patent publication EP0315434A2, “Pyridoxal hydrazone derivatives their production and use and pharmaceutical compositions containing the same” (YISSUM RESEARCH DEVELOPMENT COMPANY OF THE HEBREW …, priority 1987, dated 1989).

Key:
[1] = Fate of ⁵⁹Fe tracer incubated with chelator and injected into normal rats (radioiron distribution and excretion); type: in vivo; conditions: for Radioiron Distribution in % Feces / Radioiron Distribution in % Total excretion / Radioiron Distribution in % Urine / Radioiron Distribution in % Blood / Radioiron Distribution in % Liver / Radioiron Distribution in % Spleen: 10 mg chelator with ⁵⁹Fe, subcutaneous, normal rats; for Radioiron Distribution in % Feces / Radioiron Distribution in % Total excretion / Radioiron Distribution in % Urine: cumulative within 4 days; for Radioiron Distribution in % Blood / Radioiron Distribution in % Liver / Radioiron Distribution in % Spleen: within 4 days
Procedure: Table 1 describes the fate of ⁵⁹Fe tracer reincubated […] with 10 mg of some of the above iron chelators and then injected subcutaneously to groups of 4 normal rats. Numbers represent mean cumulative radioiron excretion within 4 days of injection. For comparison, spontaneous excretion of radioiron and the excretion of desferrioxamine (DF) bound radioiron are also given. […]
Spleen and kidney were counted as whole organs.
(§1) The excretion of radioiron following ⁵⁹Fe labelling was measured in animals confined to solitary metabolic cages with stainless steel grid bottoms, and stool and urine were collected separately.

[2] = tested on: Leukemia P 388; test: Leukemia P 388 survival in mice; type: in vivo, Mice: female B6D2F1; conditions: 1 mg/kg i.p., days 1, 2, 3, 4
[3] = Iron chelation in H₂O (spectrophotometric, apparent K), ferrous ions; type: physicochemical; conditions: ferrous versus ferric
[4] = biological target: T1, Ribonucleoside Diphosphate Reductase (RdR) (Homo sapiens, UniProt P31350); test: Inhibition of ribonucleotide diphosphate reductase; type: biochemical
T1 sequence (P31350 1-389): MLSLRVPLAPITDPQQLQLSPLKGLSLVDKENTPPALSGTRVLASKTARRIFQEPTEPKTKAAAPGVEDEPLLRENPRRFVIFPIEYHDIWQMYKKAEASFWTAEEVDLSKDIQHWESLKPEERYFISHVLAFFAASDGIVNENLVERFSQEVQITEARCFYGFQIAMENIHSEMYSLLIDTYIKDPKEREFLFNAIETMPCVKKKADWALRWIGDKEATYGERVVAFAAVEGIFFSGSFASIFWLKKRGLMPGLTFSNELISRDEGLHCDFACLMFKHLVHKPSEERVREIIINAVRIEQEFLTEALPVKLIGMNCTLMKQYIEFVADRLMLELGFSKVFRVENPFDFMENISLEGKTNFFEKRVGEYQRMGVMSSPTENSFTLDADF

[5] = tested on: Lewis lung carcinoma; test: Inhibition of Lewis lung carcinoma (primary tumor and metastases); type: in vivo; conditions: dose 1.25 mg/kg
From the text: It becomes possible also to look at the ability of one of the compounds (Ex. 1) to inhibit the growth of Lewis lung carcinoma. With a view to possible mechanisms we employed the well-established anti-cancer antibiotics (a) bleomycin, and (b) daunorubicin, as reference compounds.

[6] = Mobilization of iron from hepatic parenchymal stores in hypertransfused rats labelled with ⁵⁹Fe-ferritin; type: in vivo; conditions: for Ferritin-⁵⁹Fe distribution in % Blood / Ferritin-⁵⁹Fe distribution in % Feces / Ferritin-⁵⁹Fe distribution in % Liver / Ferritin-⁵⁹Fe distribution in % Residual / Ferritin-⁵⁹Fe distribution in % Spleen / Ferritin-⁵⁹Fe distribution in % Urine: hypertransfused rats, 40 mg per animal, single subcutaneous injection
Procedure: In each case, 40 mg of each compound was administered per animal in a single subcutaneous injection.
In vivo studies of chelating efficiency were performed in two models: (a) normal rats injected i.p. with 10 mg of either desferrioxamine B (DF), PIH of the prior art, PPH of Example 4 or PPHE from Example 5 labelled in vitro with ⁵⁹Fe; and (b) hypertransfused rats receiving twice 4 ml/100gm packed RBC intravenously 5 and 3 days prior to study (hematocrit 68%) and labelled with ⁵⁹Fe-ferritin injected i.v. 24h prior to iron chelating therapy as described previously. Drugs to be tested in the ⁵⁹Fe-ferritin model were given either by i.p. injection or by gastric tube at a dose of 40 mg per animal. Radioiron excretion and organ distribution were determined after 4 days
The radioactivity of spleen, weighed portions of the liver, and 1 ml samples of blood were determined in an automatic well type scintillation counter (Packard Autogamma Model 5360 Scintillation spectrometer). Spleen and kidney were counted as whole organs.
as §1, with “Whole body counts were performed in a small animal counter (Packard Model 446 Armac) scintillation detector. The” for “The”

[7] = tested on: chloroquine-resistant strain of P. falciparum (FCR-3); conditions: molar concentration 2 x 10⁻⁶; cultured 3 days
Procedure: Cultures of a chloroquine-resistant strain of P. falciparum (FCR-3), cultivated in human erythrocytes (a technique widely used at the Kuvin Centre, Hebrew University Hadassah Medical School), were suspended in solutions containing chelators and then cultured for 3 days. Growth of parasites was determined by either slide counts or by incorporation of ³H-hypoxanthine. The parasite growth was monitored by microscopic slide counts. […]

| Molecule | Radioiron Distribution in % Feces [1] [%] | Radioiron Distribution in % Total excretion [1] [%] | Radioiron Distribution in % Urine [1] [%] | Radioiron Distribution in % Blood [1] [%] | Radioiron Distribution in % Liver [1] [%] | Radioiron Distribution in % Spleen [1] [%] | Inhibition of Ribonucleoside Diphosphate Reductase (RdR) % ([4]; dose 10 x 10⁻⁵ M) | Ferritin-⁵⁹Fe distribution in % Blood [6] [%] | Ferritin-⁵⁹Fe distribution in % Feces [6] [%] | Ferritin-⁵⁹Fe distribution in % Liver [6] [%] | Ferritin-⁵⁹Fe distribution in % Residual [6] [%] | Ferritin-⁵⁹Fe distribution in % Spleen [6] [%] | Ferritin-⁵⁹Fe distribution in % Urine [6] [%] | other results |
| --- | --- | --- | --- | --- | --- | --- | --- | --- | --- | --- | --- | --- | --- | --- |
| Cc1c(O)c(C=NNC(=O)c2cc[n+](C)cc2)c(CO)c[n+]1C.[I-].[I-] [Comparative Compound B, 1-[N-methylpyridoxylidenium]-2-[N′-isonicotinoylium] hydrazine dimethiodide, reference compound] | 8.6±0.3 | 39.2±1.6 | 30.6±1.12 | 25.1±2.2 | 8.2±0.8 | 0.36±0.03 | – | – | – | – | – | – | – | – |
| COc1cccc2c1C(=O)c1c(O)c3c(c(O)c1C2=O)C[C@@](O)(C(C)=O)C[C@@H]3O[C@H]1C[C@H](N)[C@H](O)[C@H](C)O1 [Daunorubicin, daunorubicin, reference compound] | – | – | – | – | – | – | – | – | – | – | – | – | – | Survivors on Day 20 [2]: 0/10; Activity T/C x 100 ([2]; mean survival time treated / controls): 154 |
| Cc1ncc(CO)c(C=NNc2ncccn2)c1O [Ex. 4] | – | – | – | – | – | – | 40% | – | – | – | – | – | – | higher affinity for ferrous than for ferric ions [3]: ~30 fold; Inhibition of Ribonucleoside Diphosphate Reductase (RdR) % ([4]; dose 1 x 10⁻⁵ M): 30%; Inhibition of Ribonucleoside Diphosphate Reductase (RdR) % ([4]; dose 100 x 10⁻⁵ M): 78% |
| bleomycin [reference compound] | – | – | – | – | – | – | – | – | – | – | – | – | – | Inhibition of Lewis Carcinoma Metastases % [5]: 48%; Inhibition of Lewis Carcinoma Primary Tumor % [5]: 24% |
| 1-[N-ethoxycarbonylmethyl pyridoxylidenium] 2-[2′-pyridyl] hydrazine bromide [Ex. 3] | 57.2±1.1 | 86.7±1.7 | 29.5±0.6 | 6.4±0.4 | 3.3±0.4 | 0.16±0.04 | none | 3.8±0.2 | 57.6±2.9 | 36.5±1.2 | 0 | 0.4±0.1 | 1.7±0.1 | efficiency as compared to the parenteral administration of the same drug ([6]; oral 40 mg versus parenteral): 31%; effectiveness relative to DF on a weight per weight basis ([6]; rat, in vivo): 3 times; INHIBITION OF GROWTH OF DRUG-RESISTANT STRAIN OF P. falciparum % INHIBITION [7]: 90.9%; TOTAL EXCRETION OF RADIO-IRON IN RATS % ([1]; as in Table 1): 86.7± 1.7% |
| 1-[N-methylpyridoxylidenium]-2-[methyl pyridiniumn] hydrazine hydroxido iodide [Ex. 2] | 27.0±2.2 | 66.0±5.3 | 39.0±3.1 | 13.3±2.3 | 6.8±0.4 | 0.51±0.02 | – | 3.0±0.1 | 58.9±3.0 | 35.5±1.7 | 0 | 0.4±0.1 | 2.2±0.1 | – |
